The values below come from PMC10093438, “α-Mangostin Promotes In Vitro and In Vivo Degradation of Androgen Receptor and AR-V7 Splice Variant in Prostate Cancer Cells” (Cancers, 2023).

SMILES strings stand for the structures.

The test concerns the target T1, BiP (GRP78) (Homo sapiens, UniProt P11021).
T1 construct: gene HSPA5; recombinant His-GST-BiP (BiP-N-His-GST), expressed in E. coli
Put plainly: SPR (Biacore T200, His-capture plus amine coupling on NTA chip). It counts as binding. (In general: SPR reads the build-up and loss of mass on a sensor chip optically.)

T1 sequence (P11021 19-654): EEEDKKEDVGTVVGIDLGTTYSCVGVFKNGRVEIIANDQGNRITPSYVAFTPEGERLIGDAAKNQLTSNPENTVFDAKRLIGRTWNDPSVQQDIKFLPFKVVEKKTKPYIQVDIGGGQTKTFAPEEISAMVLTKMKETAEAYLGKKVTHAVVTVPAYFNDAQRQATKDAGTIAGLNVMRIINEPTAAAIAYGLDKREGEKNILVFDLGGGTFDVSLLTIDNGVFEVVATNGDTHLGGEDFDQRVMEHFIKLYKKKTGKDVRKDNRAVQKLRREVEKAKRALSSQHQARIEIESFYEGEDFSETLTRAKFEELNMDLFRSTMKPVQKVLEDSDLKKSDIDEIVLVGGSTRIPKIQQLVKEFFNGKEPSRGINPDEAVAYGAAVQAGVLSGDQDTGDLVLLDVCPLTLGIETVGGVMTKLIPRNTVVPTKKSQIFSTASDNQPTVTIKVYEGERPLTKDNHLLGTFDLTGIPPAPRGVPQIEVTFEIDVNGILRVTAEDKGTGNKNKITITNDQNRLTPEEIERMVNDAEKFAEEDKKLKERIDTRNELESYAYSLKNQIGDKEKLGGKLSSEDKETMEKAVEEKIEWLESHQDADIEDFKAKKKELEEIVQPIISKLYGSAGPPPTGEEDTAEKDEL

Turning to `COc1c(O)cc2oc3cc(O)c(CC=C(C)C)c(O)c3c(=O)c2c1CC=C(C)C` [α-Mangostin], the Kd stood at 21.7 µM.

In general, Kd refers to a measure of binding affinity in units of concentration.
